How the values were obtained:
human CRTh2 [1] = target: T1, human CRTh2 (Homo sapiens, UniProt Q9Y5Y4); experiment: Filtration binding assay ([3H]-PGD2 competition on CHO.K1-CRTh2 membranes); set-up: expressed in transfected cells; host or cells: CHO.K1 (CHO.K1-CRTh2), membranes; conditions: [3H]-PGD2 2.5 nM, Cheng-Prussoff
T1 sequence (Q9Y5Y4 1-395): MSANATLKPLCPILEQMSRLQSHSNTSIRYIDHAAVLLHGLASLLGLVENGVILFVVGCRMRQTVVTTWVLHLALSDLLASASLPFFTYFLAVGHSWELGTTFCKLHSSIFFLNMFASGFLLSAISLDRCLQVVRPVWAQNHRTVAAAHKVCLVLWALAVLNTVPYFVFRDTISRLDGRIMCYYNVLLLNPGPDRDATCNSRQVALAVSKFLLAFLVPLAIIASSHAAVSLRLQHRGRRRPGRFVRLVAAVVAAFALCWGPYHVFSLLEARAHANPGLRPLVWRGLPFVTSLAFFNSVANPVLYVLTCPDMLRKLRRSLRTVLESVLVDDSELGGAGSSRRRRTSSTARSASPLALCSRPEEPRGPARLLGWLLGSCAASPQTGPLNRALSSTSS
Protocol: The binding of CRTh2 modulators is determined using membranes prepared from human CRTh2-expressing Chinese Hamster Ovary cells (CHO.K1-CRTh2). To produce cell membranes CHO.K1-CRTh2 cells cultured in roller bottles are harvested using cell dissociation buffer (Invitrogen). The cells are pelleted by centrifugation (167 g, 5 min). The cell pellet is incubated in hypotonic buffer (15 mM Tris-OH, 2 mM MgCl2, 0.3 mM EDTA, 1 mM EGTA, 1× Complete™ tablet) at 4° C. for 30 minutes. At 4° C. cells are homogenized using a Polytron®) (IKA Ultra Turrax T25) for 5 bursts of 1 second. The homogenate is centrifuged (Beckman Optima TM TL Ultracentrifuge, 48000 g, 30 minutes at 4° C.). The supernatant is discarded and the membrane pellet re-suspended in homogenisation buffer (75 mM Tris-OH, 12.5 mM MgCl2, 0.3 mM EDTA, 1 mM EGTA, 250 mM Sucrose, 1× Complete™ tablet. Membrane preparations are aliquoted and stored at […]. The protein content is estimated using Bradford Protein Assay Dye (Bio Rad).
The binding of [^3H]-PGD2 (157 Ci/mmol) to CHO.K1-CRTh2 membranes is determined in the absence (total binding) and presence (non-specific binding) of unlabelled PGD2 (1 μM). Subtraction of the cpm (counts per minute) of [^3H]-PGD2 binding in presence of excess unlabelled PGD2 from that observed in the absence of excess unlabelled PGD2 is defined as specific binding. Active CRTh2 antagonists are able to compete with [^3H]-PGD2 for binding to the CRTh2 receptor and are identified in a decrease in the number of cpm bound. […]
The plates are incubated at room temperature on a shaker for 1 hour, and then harvested (Tomtec Harvester 9600) onto GF/C filter plates using wash buffer (10 mM HEPES-KOH, pH 7.4). […] Plates are then counted using a Packard Top Count instrument, […]
Ki (dissociation constant for the inhibition) values for the CRTh2 antagonists are reported. Ki values are determined using Sigma Plots software, using the Cheng-Prussoff equation. […]

human CRTh2 [2] = target: T1, human CRTh2; experiment: CRTH2 cAMP functional assay in CHO.K1-CRTh2 cells; type: cell-based; set-up: expressed in transfected cells; host or cells: CHO.K1 (CHO.K1-CRTh2), whole cells; conditions: inhibition of PGD2-mediated attenuation of forskolin-induced cAMP accumulation in CHO.K1-CRTh2 cells
Protocol: where S is the concentration of radioligand and Kd is the dissociation constant. CRTH2 cAMP Functional Assay Protocol
This assay is conducted in CHO.K1-CRTh2 cells. cAMP is generated in the cell by stimulating cells with 5 μM forskolin, an adenylate cyclase activator. PGD2 is added to activate the CRTh2 receptor which results in the attenuation of the forskolin-induced cAMP accumulation. Potential CRTh2 antagonists are tested for their ability to inhibit the PGD2-mediated attenuation of the forskolin-induced cAMP accumulation in CHO.K1-CRTh2 cells.
For each concentration value on the dose-response curve, test compounds are prepared in assay stimulation buffer (HBSS, 5 mM HEPES, 10 μM IBMX±0.1% human serum albumin) containing DMSO (3% vol/vol) and 5 μL/well is added to an assay plate (384 well white optiplate).
CHO.K1-CRTh2 cultured in tissue culture flasks are washed with PBS and harvested with dissociation buffer. Cells are washed with PBS and re-suspended in stimulation buffer to a concentration of 0.4×10^6/mL and added to the assay plate (10 μL/well).
The assay plate is incubated at room temperature on a shaker for 15 minutes.
A mix of agonist (10 nM Prostaglandin D and 5 μM forskolin is prepared in assay stimulation buffer and added to the assay plate (5 μL/well).
In addition, a cAMP standard is serially diluted in assay stimulation buffer and added to separate empty wells on the assay plate (20 μL/well). The cAMP standard allows for the quantification of cAMP generated in CHO.K1-CRTH2 cells.
The assay plate is incubated at room temperature on a shaker for 60 minutes. […]
The assay plate is sealed with Topseal-S™ and incubated in the dark at room temperature on a shaker for 45 minutes. The plate is then counted using a Packard Fusion™ instrument. […]

| Ki (human CRTh2 [1]) | IC50 (human CRTh2 [2]) | SMILES |
| --- | --- | --- |
| 17 nM | 2 nM | N#Cc1cn(CC(=O)O)cc1-c1cc(C(F)(F)F)cc(S(=O)(=O)N2CCN(Cc3ccncc3)CC2)c1 [Example 3, {3-Cyano-4-[3-(4-pyridin-4-ylmethyl-piperazine-1-sulfonyl)-5-trifluoromethyl-phenyl]-pyrrol-1-yl}-acetic acid] |
| 2 nM | 5 nM | Cc1ccc(CNS(=O)(=O)c2cc(-c3cn(CC(=O)O)cc3C#N)cc(C(F)(F)F)c2)o1 [Example 8, (3-Cyano-4-{3-[(5-methyl-furan-2-ylmethyl)-sulfamoyl]-5-trifluoromethyl-phenyl}-pyrrol-1-yl)-acetic acid] |
| 49 nM | 26 nM | N#Cc1cn(CC(=O)O)cc1-c1cc(Cl)cc(S(=O)(=O)N2CCN(c3ccccc3F)CC2)c1 [Example 9, (3-{3-Chloro-5-[4-(2-fluoro-phenyl)-piperazine-1-sulfonyl]-phenyl}-4-cyano-pyrrol-1-yl)-acetic acid] |

From patent US20090209552A1, “Organic Compounds” (Novartis AG, priority 2006, published 2009)
